# Experimental data reported in patent publication US20100215653A1, “METHODS OF TREATING NEOPLASTIC, AUTOIMMUNE AND INFLAMMATORY DISEASES” (Seattle Genetics, Inc., priority 2006, published 2010).
# Entries after “also recorded” stand apart in the source; their conditions may differ. Read-outs that look alike come from different tables or passages of the source.
# Columns and labels:
# [1] = test system: AML tumor cells (KG-1 HEL9217, and TF1α); assay: ADCC, 51Cr release assay with NK effector cells; format: cell-based, human; details: MDR-positive and MDR-negative AML cells; effector to target ratio 10:1 (FIG. 27A)
# Description: (§1) Target AML tumor cells (KG-1 HEL9217, and TF1α) were labeled with Na^51CrO4 and mixed with enriched CD16^+ effector (NK) cells, prepared using PBMCs from normal donors. The effector to target cell ratio was 10:1. […] Macrophages were labeled with CD11b−FITC or CD14-FITC antibody. Flow cytometric analyses of dual labeled (PKH67+CD11b+ or PKH67+CD14+) cells was used to determine specific uptake (phagocytosis). […] Media were collected 18 h later and analyzed by ELISA for IL-8 or MCP-1.
# Viable NK cells were pre-treated for 2 to 3 h with lenalidomide or thalidomide (as described in FIG. 23) prior to addition to target cells.
# CD33 [2] = target: T1, CD33 (Homo sapiens, UniProt P20138); assay: Apparent Kd by saturation binding using flow cytometry; parameters: endogenous in cells; host or cells: HL60, KG-1, HEL9217, TF1-α
# Description: As a preliminary step, the AML cell lines HL60, KG-1, HEL9217 and TF1-α were assessed for multi-drug resistance (MDR) status and CD33 copy number. MDR status was determined by flow cytometry assessment of Rhodamine (Rh123) efflux at 37° C. […] CD33 copy number was determined by qFACs (DAKO QifiKit) and apparent Kd values by saturation binding measurements using flow cytometry.
# TF1-α cells = assay: TF1-α disseminated MDR-positive AML model in SCID mice; format: in vivo
# Description: (§2) The MDR-negative HL60 cell line and the MDR-positive HEL9217 and TF1-α cell lines were used. […] Disease symptoms typically developed between about 35 and about 80 days, and included hind limb paralysis, scruffy coat, weight loss, palpable tumors, and/or tumor masses in bone, peritoneal cavity, or soft tissues. Human CD33+ tumor cells were detected in the blood, bone marrow, and lymph nodes of the majority of the mice by flow cytometry (FIG. 25). Solid tumors associated with bone or soft tissues were found in 20 to 60% of the mice.
# CD33 [3] = target: T1, CD33; assay: Recruitment of SHP-1 / SHP-2 / Syk to CD33 (CD33 immunoprecipitation, Western blot); format: cell-based; parameters: endogenous in cells; host or cells: HL-60, U937; primary human CD14+ monocytes and PBMC-derived macrophages
# Description: To determine whether the humanized M195 antibody also recruits SHP phosphatases, HL-60 cells were treated with soluble or cross-linked anti-CD33 antibodies. Cell extracts were prepared and CD33 was immunoprecipitated with an anti-CD33 antibody (MY9 clone). Western blotting was performed with an anti-SHP-1 antibody (sc-287; Santa Cruz Biotechnology, Inc., Santa Cruz, Calif.).
# To prepare deglycosylated SGN-33, the antibody was treated with PN-glycosidase F (New England BioLabs, Ipswich, Mass.). Deglycosylation was confirmed by CE-SDS. […] Cell lysates were prepared and CD33 immunoprecipitated using an anti-CD33 rabbit polyclonal antibody (Santa Cruz Biotechnology, Santa Cruz, Calif.) prior to SDS PAGE gel electrophoresis. Western blot analyses of these samples were performed using the 4G10 phosphotyrosine antibody (Upstate Biotechnology, Temucula, Calif.), anti-CD33 antibody (NovoCastra, Norwell, Mass.), and anti-SHP-1 antibody (Calbiochem, San Diego, Calif.). Control lysate for SHP-1 was prepared from a B cell lymphoma cell line.
# human CD14+ monocytes = assay: Cytokine, chemokine and growth factor production by human CD14+ monocytes; format: cell-based
# Description: Tissue culture media was harvested 18 h later for cytokine analyses by ELISA or Searchlight (Pierce Endogen, Rockville, Ill.).
# [4] = test system: primary human macrophages; assay: Macrophage migration in response to chemoattractants (CytoSelect Cell Migration Assay); format: cell-based
# Description: (§3) The migration of macrophages in response to challenge with plating media containing 10% human serum, 20% conditioned tumor cell media, or 50 ng/ml TGF-β, VEGF, TNF-α, or IFN-γ was evaluated using the CytoSelect Cell Migration Assay (Cell Biolabs, San Diego, Calif.). […] The study was stopped 18 hours later and migration was evaluated after dissociation of the cells from the membrane followed by detection with Cyquant GR dye.
# as §3, with “serum or” for “serum,”, “media” for “media, or 50 ng/ml TGF-β, VEGF, TNF-α, or IFN-γ”, “studies were” for “study was”, “h” for “hours”
# [5] = test system: primary human macrophages; assay: Cell viability (CelltiterGlo) of primary human macrophages; format: cell-based; details: 24 to 72 hours of exposure to increasing concentrations (FIG. 8)
# Description: Macrophages were harvested, counted, and cultured in 96-well plates at 35,000 cells per well. G-CSF-mobilized CD14^+ monocytes (Cambrex) were cultured in 96-well plates at 100,000 cells per well (adherent cells) in sterile polypropylene dishes (non-adherent cells).
# [6] = test system: advanced myeloid malignancies; assay: Phase I single-arm dose escalation trial; format: in vivo, human
# Description: Entry criteria included CD33 expression on >50% of the marrow blasts to ensure that adequate target antigen was present. […] Clinical response was assessed by bone marrow morphology and hematologic improvement. […] Among AML patients, 6 had antecedent hematologic disorder. Dosing cohorts included 1.5 (6), 2.5 (4), 4 (4), and 8 mg/kg (17).
# HEL9217 cells = assay: HEL9217 disseminated MDR-positive AML model in SCID mice; format: in vivo
# Description: as §2
# AML tumor cells = assay: ADCP, phagocytosis by monocyte-derived macrophages (flow cytometry); format: cell-based, human; details: MDR-positive and MDR-negative AML cells (FIG. 27B)
# Description: as §1
# KG-1 AML cell line = assay: Cytokine production by KG-1 AML cell line after TNF-alpha; format: cell-based, human; details: 2.5 μg/ml pre-treatment, then 1 ng/ml TNF-alpha, 18 h
# Description: Media was harvested 18 h later for cytokine analyses.
# AML tumor cell lines = assay: IL-8 / MCP-1 production by AML tumor cell lines after TNF-α (ELISA); format: cell-based, human; details: 10 μg/ml SGN-33 before 1 ng/ml TNF-α; 18 h; p<0.05, p<0.01 (FIG. 27C)
# Description: as §1
# T1 sequence (P20138 18-364): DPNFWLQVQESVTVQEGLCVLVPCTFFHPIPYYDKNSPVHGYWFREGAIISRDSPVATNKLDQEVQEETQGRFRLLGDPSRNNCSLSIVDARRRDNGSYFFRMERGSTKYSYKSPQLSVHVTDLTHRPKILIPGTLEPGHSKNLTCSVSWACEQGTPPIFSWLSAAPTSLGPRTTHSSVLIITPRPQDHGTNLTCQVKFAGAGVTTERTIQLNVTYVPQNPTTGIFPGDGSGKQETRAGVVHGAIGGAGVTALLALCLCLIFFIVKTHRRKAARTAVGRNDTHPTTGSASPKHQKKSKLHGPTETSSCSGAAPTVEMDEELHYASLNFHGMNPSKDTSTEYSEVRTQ
substance,measurement,setting,value
"SGN-33: anti-CD33 antibody, a humanized version of mouse monoclonal antibody M195",ADCC activity (cell lysis),[1],mediated antibody-dependent cell cytotoxity; also recorded: mediate cell lysis of MDR− and MDR+AML tumor cell lines
same,Kd,"CD33 [2]; read-out: Kd (pM) for SGN-33, HEL9217 cells (MDR positive)",144 ± 12 pM
same,Kd,"CD33 [2]; read-out: Kd (pM) for SGN-33, HL60 cells (MDR negative)",123 ± 16 pM
same,Kd,"CD33 [2]; read-out: Kd (pM) for SGN-33, KG-1 cells (MDR negative)",70 ± 20 pM
same,Kd,"CD33 [2]; read-out: Kd (pM) for SGN-33, TF1-α cells (MDR positive)",99 ± 22 pM
same,increase of survival,"TF1-α cells; MDR-positive TF1-α model, 4 doses at 10 or 30 mg/kg, p<0.025",greater than 40 days
same,survival,"TF1-α cells; TF1-α model, SCID mice, q4dx4, p<0.005 (FIG. 26)",> 100 days
same,recruitment of SHP-1 to the CD33 complex,"CD33 [3]; HL-60 and monocytes, 30 minutes (FIG. 16)",resulted in recruitment of SHP-1 to the CD33 complex
same,recruitment of SHP-2 or Syk,"CD33 [3]; HL-60 cells, data not shown",did not recruit SHP-2 or Syk
same,"basal and IFN-γ stimulated levels of IL-6, MCP-1, TNF-α, IL-8; IFN-γ stimulated level of RANTES","human CD14+ monocytes; adherent CD14+ monocytes, 48 h (FIG. 10)",reduced the basal levels and IFN-γ stimulated levels
same,"basal and conditioned media stimulated levels of IL-6, MCP-1, IL-8; conditioned media stimulated level of RANTES","human CD14+ monocytes; adherent CD14+ monocytes, RPMI-8228 conditioned media (FIG. 11)",reduced the basal levels and the RPMI-8228 conditioned media stimulated levels
same,level of TNF-α,"human CD14+ monocytes; adherent CD14+ monocytes, basal and RPMI-8228 conditioned media stimulated (FIG. 11)","reduced the basal level, but not the RPMI-8228 conditioned media stimulated level"
same,"levels of IL-6, IL-8, TNF-α and MCP-1",human CD14+ monocytes; non-adherent CD14+ monocytes exposed to SGN-33 (FIG. 12),small increases
same,"production of cytokines, chemokines and growth factors","human CD14+ monocytes; non-adherent CD14+ monocytes, IFN-γ (FIG. 12)","not inhibited by SGN-33, except for the basal level of RANTES"
same,"IFN-γ-stimulated production of IL-1β, IL-10, IL-12 and MIP-1α","human CD14+ monocytes; primary human monocytes treated 1 hr before IFN-γ, 18 h, p<0.001 (FIG. 19)",significantly reduced
same,levels of TNF-α,"human CD14+ monocytes; primary human monocytes, various doses 1 hr before IFN-γ, 18 h, p<0.05 (FIG. 20)",significantly reduced levels of TNF-α in a dose-dependent manner
same,macrophage migration,"[4]; 10% human serum or 20% conditioned media from RPMI 8226 cells, p<0.05 (FIG. 21)",significantly reduced the migration
same,blocking of migration of neuraminidase-treated macrophages,"[4]; SGN-33 added to neuraminidase-treated macrophages, serum or tumor cell conditioned media (FIG. 14C)",greater blocking effect
same,cell viability of macrophages,[5],not due to an adverse effect; also recorded: does not affect the viability
same,Grade 4 adverse events considered related to antibody,[6]; 31 patients,none
same,patients achieving CR,[6]; among 18 patients with AML,4
same,patients achieving CR with incomplete platelet recovery,[6]; among 18 patients with AML,1
same,accumulation,[6]; repeat dosing,documented with repeat dosing
same,dose limiting toxicity,"[6]; weekly iv 1.5 to 8 mg/kg for 5 weeks, 31 patients",has not been observed
same,survival,"HEL9217 cells; HEL9217 model, SCID mice, q4dx4, p<0.005 (FIG. 26)",> 80 days
same,increase of survival,"HEL9217 cells; MDR-positive HEL9217 model, 4 doses at 10 or 30 mg/kg, p<0.025",greater than 40 days
same,ADCP activity (phagocytosis),AML tumor cells,antibody-dependent cell phagocytosis of MDR-positive and MDR-negative AML cells; also recorded: mediate phagocytosis of AML tumor cells
same,"production of IL-8, IP-10, MIP1β, RANTES and MCP-1",KG-1 AML cell line,"reduced the production of IL-8, IP-10, MIP1β, RANTES, and MCP-1"
same,production of cytokines (IL-8 or MCP-1),AML tumor cell lines,reduced cytokine production; also recorded: significantly reduced the production of cytokines
